# Experimental data taken from patent US20200087625A1, “METHODS FOR ISOLATING, EXPANDING AND ADMINISTERING CANCER SPECIFIC CD8+ T CELLS” (priority 2017, published 2020).
# Tests used:
# [1] = test system: 4T1-GLF cells; assay: In vivo imaging (IVIS) of lung tumor signals, 4T1-GLF; design: species or system BALB/c mice; details: 200 μg i.p. day -1; early phase 3 h and 6 h, late phase days 7, 10, 14
# Procedure: (§1) FIGS. 25A-25F. Innate immune cells, NK cells and dendritic cells are activated following 1V270 therapy and contribute to anti-metastatic effects (A-C) Systemic administration of 1V270 activates dendritic cells and increases CD8^+ cell recruitment in the lung draini lymph node. (A) BALB/c mice (n=S/group) were treated with 1V270 on day −1 and then tumor cells were i.v. administered on day 0. Seven days later, mediastinal lymph node (mLN) cells were stained for dendritic cells (DC; CD45^+CD11c^+MHC classll^+). (B) DCs were further stained for CD80 and CD86. […] Tumor signals were quantified by IVIS. […] On the next day, lung cells were stained for NK markers (CD45^+[…] NKp46^+CD49^+) and analyzed by flow cytometry. […] Tumor signals were analyzed as described above. […]
# GFP and luciferase (GLF)-expressing tumor cells (2×10^4 of 4T1-GLF, 5×10^5 of B16-GLF, and […] of LLC-GLF) were i.v. injected into BALB/c mice for 4T1 models, BG-albino or wild-type C57BU6 for B16 melanoma or LLC models). […] Image data were acquired by 1 Ss exposure using the IVIS Spectrum and analyzed using the Living Image software, version 4.5.2 (Perkin Elmer, Waltham, Mass.). We confirmed that the tumor signals in the lungs at day 10 correlated with the number of lung metastasis determined on day 21, as well as the overall survival (Supplemental figures 10). […]
# [2] = test system: NK cells and MDSC; assay: Innate immune cell recruitment to the lungs (flow cytometry); type: in vivo, BALB/c mice; details: 1V270 day -1; vs vehicle
# Procedure: as §1, with “CD86. (C) The mLN cells were also stained for central memory CD8^+ T cells (CD3+CD8^+CD44^+CD62L^+), effector memory CD8^+ T cells (CD3+CD8^+CD44^+CD62L^+), and naive CD8^+ T cells (CD3+CD8^+CD44^−CD62L^−). Each dot indicates an individual mouse and horizontal and vertical bars indicate means±SEM.” for “CD86.”
# FIGS. 33A-33C. […] Next day, single cell suspensions derived from the lungs were stained for (A) NK cells (CD45^+CD3^−NKp46^+CD49^+), (B) M-MDSCs (CD45^+CD11b^+Ly6G^−Ly6^high) and (C) PMN-MDSCs (CD45^+CD11b^+Ly6G^+) were analyzed by flow cytometric assay. […]
structure (smiles),measurement,setting,value
CCCCCCCCC=CCCCCCCCC(=O)OCC(COP(=O)(O)OCCNC(=O)c1ccc(Cn2c(=O)[nH]c3c(N)nc(OCCOC)nc32)cc1)OC(=O)CCCCCCCC=CCCCCCCCC (stereo not drawn) [1V270],lung tumor signals (IVIS),[1],significantly suppressed the tumor signals
same,population of NK cells recruited to the lungs,[2],Significantly increased populations
same,population of monocytic-MDSC recruited to the lungs,[2],Significantly increased populations
